Consider 32 compounds from patent publication US7595401B2, “Therapeutic compounds and their use in cancer” (Myriad Pharmaceuticals, Inc., priority 2006, dated 2009).

The test system of the first test is purified human Hsp90. Put plainly: Binding Assay: fluorescence polarization with BODIPY-labeled geldanamycin. The conditions noted are these: 5 μM compound, BODIPY-GM 10 nM, Hsp90 30 nM. The essentials: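 Compounds in 2% DMSO final compete with 10 nM BODIPY-GM for 30 nM purified human Hsp90, incubated overnight at room temperature in pH 7.3 HEPES buffer containing Na2MoO4 and DTT. Polarization (mP, ex/em 485/530) normalized to DMSO gives percent inhibition; autofluorescence-confounded data excluded.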
(Polarisation of emitted light reports the rotation of a fluorescent probe.)
For the compound `CC(=O)N1CCC(CCn2cnc(N)c3nc(Sc4nc5ccc([N+](=O)[O-])cc5s4)nc2-3)CC1` [Example 652, 3-[2-(1-Acetylpiperidin-4-yl)ethyl]-8-[(6-nitro-1,3-benzothiazol-2-yl)thio]-3H-purin-6-amine], the % Inhibition (usually the drop in the measured response relative to a control, in per cent) at 5 μM Compound Concentration worked out at 0.00%.

As for `CC(C)(C)OC(=O)NC(CCn1cnc(N)c2nc(Sc3cc4c(cc3Br)OCO4)nc1-2)C1CC1` (centres unmarked) [Example 663, tert-butyl (3-{6-amino-8-[(6-bromo-1,3-benzodioxol-5-yl)thio]-3H-purin-3-yl}-1-cyclopropylpropyl)carbamate], the “% Inhibition at 5 μM Compound Concentration” value (“% Inhibition” below) was determined as 15%.

With `COc1ccc(OC)c(Sc2nc3c(N)ncn(CCC(NC(=O)OC(C)(C)C)C4CC4)c-3n2)c1` (centres unmarked) [Example 665, tert-Butyl(3-{6-amino-8-[(2,5-dimethoxyphenyl)thio]-3H-purin-3-yl}-1-cyclopropylpropyl)carbamate], the “% Inhibition” value turned out to be 0%.

For the compound `COc1ccc(OC)c(Sc2nc3c(N)ncn(CCC(NC(=O)OC(C)(C)C)C4CCSCC4)c-3n2)c1` (centres unmarked) [Example 669, tert-Butyl[3-{6-amino-8-[(2,5-dimethoxyphenyl)thio]-3H-purin-3-yl}-1-(tetrahydro-2H-thiopyran-4-yl)propyl]carbamate], the “% Inhibition” value is 10%.

As to `CC(C)(C)OC(=O)NC(CCn1cnc(N)c2nc(Sc3cc4c(cc3Br)OCO4)nc1-2)C1CCC1` (centres unmarked) [Example 673, tert-Butyl(3-{6-amino-8-[(6-bromo-1,3-benzodioxol-5-yl)thio]-3H-purin-3-yl}-1-cyclobutylpropyl)carbamate], the “% Inhibition” value worked out at 0%.

Turning to `CS(=O)(=O)NC(CCn1cnc(N)c2nc(Sc3cc4c(cc3Br)OCO4)nc1-2)C1CC1` (centres unmarked) [Example 675, N-(3-{6-Amino-8-[(6-bromo-1,3-benzodioxol-5-yl)thio]-3H-purin-3-yl}-1-cyclopropylpropyl)methanesulfonamide], the “% Inhibition” value was found to be 49%.

As to `CC(C)(C)OC(=O)NC(CCn1cnc(N)c2nc(Sc3cc4c(cc3Br)OCO4)nc1-2)C1CCCC1` (centres unmarked) [Example 680, {3-[6-Amino-8-(6-bromo-benzo[1,3]dioxol-5-ylsulfanyl)-purin-3-yl]-1-cyclopentyl-propyl}-carbamic acid tert-butyl ester], the “% Inhibition” value is on record as 14%.

Turning to `CC(C)(C)OC(=O)NC(CCn1cnc(N)c2nc(Sc3cc4c(cc3Br)OCO4)nc1-2)C1CCOCC1` (centres unmarked) [Example 683, [3-[6-Amino-8-(6-bromo-benzo[1,3]dioxol-5-ylsulfanyl)-9H-purin-3-yl]-1-(tetrahydro-pyran-4-yl)-propyl]-carbamic acid tert-butyl ester], the “% Inhibition” value amounted to 5%.

Still in this test, the particulars now being: BODIPY-GM 10 nM, Hsp90 30 nM.
In the case of `CC(C)(C)OC(=O)CN1CCCCC1CCn1c(Sc2cc3c(cc2Br)OCO3)nc2c(N)ncnc21` (centres unmarked) [Example 645, tert-Butyl [2-(2-{6-amino-8-[(6-bromo-1,3-benzodioxol-5-yl)thio]-9 H-purin-9-yl}ethyl)piperidin-1-yl]acetate], the IC50 (usually the concentration at which inhibition is half-maximal) worked out at 450 nM. In other words, the sub-micromolar range.

`Nc1ncnc2c1nc(Sc1cc3c(cc1Br)OCO3)n2CCCC1CCCCN1` (centres unmarked) [Example 646, 8-[(6-bromo-1,3-benzodioxol-5-yl)thio]-9-(3-piperidin-2-ylpropyl)-9H-purin-6-amine] registered an IC50 of 60 nM. This IC50 lies about 7.5-fold lower than the previous one.

Consider `Nc1ncnc2c1nc(Sc1cc3c(cc1Br)OCO3)n2CC1CCNCC1` [Example 648, 8-[(6-bromo-1,3-benzodioxol-5-yl)thio]-9-(piperidin-4-ylmethyl)-9H-purin-6-amine], for which the IC50 is 684 nM. Compared with the last compound, the IC50 is about 11-fold higher.

The compound `Nc1ncnc2c1nc(Sc1cc3c(cc1Br)OCO3)n2CCC1CCCCN1CC(=O)O` (centres unmarked) [Example 650, [2-(2-{6-amino-8-[(6-bromo-1,3-benzodioxol-5-yl)thio]-9H-purin-9-yl}ethyl)piperidin-1-yl]acetic acid] showed an IC50 above 2000 nM.

Compound `CC(=O)N1CCC(CCn2c(Sc3nc4ccc([N+](=O)[O-])cc4s3)nc3c(N)ncnc32)CC1` [Example 651, 9-[2-(1-Acetylpiperidin-4-yl)ethyl]-8-[(6-nitro-1,3-benzothiazol-2-yl)thio]-9H-purin-6-amine] came in with a half-maximal inhibitory concentration (IC50) above 5000 nM.

`CC(=O)N1CCC(CCn2c(Sc3nc4c(Cl)cccc4s3)nc3c(N)ncnc32)CC1` [Example 653, 9-[2-(1-Acetylpiperidin-4-yl)ethyl]-8-[(4-chloro-1,3-benzothiazol-2-yl)thio]-9H-purin-6-amine] came in with an IC50 above 2000 nM.

`CC(=O)N1CCC(CCn2c(Sc3nc(C)c(C)s3)nc3c(N)ncnc32)CC1` [Example 654, 9-[2-(1-Acetylpiperidin-4-yl)ethyl]-8-[(4,5-dimethyl-1,3-thiazol-2-yl)thio]-9H-purin-6-amine] had a half-inhibitory concentration (IC50) of 2000 nM.

For the compound `CC(=O)N1CCC(CCn2c(Sc3nc4ccc(F)cc4s3)nc3c(N)ncnc32)CC1` [Example 655, 9-[2-(1-Acetylpiperidin-4-yl)ethyl]-8-[(6-fluoro-1,3-benzothiazol-2-yl)thio]-9H-purin-6-amine], the IC50 was above 5000 nM.

The compound `CC(=O)N1CCC(CCn2c(Sc3nc4cc(Cl)ccc4s3)nc3c(N)ncnc32)CC1` [Example 656, 9-[2-(1-Acetylpiperidin-4-yl)ethyl]-8-[(5-chloro-1,3-benzothiazol-2-yl)thio]-9H-purin-6-amine] had a concentration for half-maximal inhibition (IC50) above 5000 nM.

`CC(=O)N1CCC(CCn2c(Sc3nc4cccc(Cl)c4s3)nc3c(N)ncnc32)CC1` [Example 657, 9-[2-(1-Acetylpiperidin-4-yl)ethyl]-8-[(7-chloro-1,3-benzothiazol-2-yl)thio]-9H-purin-6-amine]: the IC50 turned out to be 190 nM. This lies in the sub-micromolar range.

Regarding `COc1ccc2sc(Sc3nc4c(N)ncnc4n3CCC3CCN(C(C)=O)CC3)nc2c1` [Example 658, 9-[2-(1-Acetylpiperidin-4-yl)ethyl]-8-[(5-methoxy-1,3-benzothiazol-2-yl)thio]-9H-purin-6-amine], the concentration for half-maximal inhibition (IC50) was above 5000 nM.

Turning to `CC(=O)N1CCC(CCn2c(Sc3nc4ccccc4s3)nc3c(N)ncnc32)CC1` [Example 659, 9-[2-(1-Acetylpiperidin-4-yl)ethyl]-8-(1,3-benzothiazol-2-ylthio)-9H-purin-6-amine], the half-inhibitory concentration (IC50) turned out to be 4000 nM. That is a single-digit micromolar value.

In turn, `CC(=O)N1CCC(CCn2c(Sc3nc(C)c(CC(N)=O)s3)nc3c(N)ncnc32)CC1` [Example 660, 2-[2-({9-[2-(1-Acetylpiperidin-4-yl)ethyl]-6-amino-9H-purin-8-yl}thio)-4-methyl-1,3-thiazol-5-yl]acetamide] showed an IC50 above 5000 nM.

In turn, `Nc1ncnc2c1nc(Sc1nc3cccc(Cl)c3s1)n2CCC1CCN(C=O)CC1` [Example 661, 4-(2-{6-Amino-8-[(7-chloro-1,3-benzothiazol-2-yl)thio]-9H-purin-9yl}-ethyl)-piperidin-1-carbaldehyde] registered a half-maximal inhibitory concentration (IC50) of 60 nM.

The compound `CC(C)(C)OC(=O)NC(CCn1c(Sc2cc3c(cc2Br)OCO3)nc2c(N)ncnc21)C1CC1` (centres unmarked) [Example 662, tert-Butyl (3-{6-amino-8-[(6-bromo-1,3-benzodioxol-5-yl)thio]-9H-purin-9-yl}-1-cyclopropylpropyl)carbamate] had an IC50 of 300 nM.

`CC(C)(C)OC(=O)NC(CCn1c(Sc2cc3c(cc2Br)OCO3)nc2c(N)ncnc21)C1CCSCC1` (centres unmarked) [Example 666, tert-Butyl[3-{6-amino-8-[(6-bromo-1,3-benzodioxol-5-yl)thio]-9H-purin-9-yl}-1-(tetrahydro-2H-thiopyran-4-yl)propyl]carbamate]: the IC50 was 800 nM.

As for `COc1ccc(OC)c(Sc2nc3c(N)ncnc3n2CCC(NC(=O)OC(C)(C)C)C2CCSCC2)c1` (centres unmarked) [Example 668, tert-Butyl[3-{6-amino-8-[(2,5-dimethoxyphenyl)thio]-9H-purin-9-yl}-1-(tetrahydro-2H-thiopyran-4-yl)propyl]carbamate], the IC50 was 4800 nM.

`CC(C)(C)OC(=O)NC(CCn1c(Sc2cc3c(cc2Br)OCO3)nc2c(N)ncnc21)C1CCCCC1` (centres unmarked) [Example 670, tert-Butyl(3-{6-amino-8-[(6-bromo-1,3-benzodioxol-5-yl)thio]-9H-purin-9-yl}-1-cyclohexylpropyl)carbamate] gave a concentration for half-maximal inhibition (IC50) of 1600 nM.

As for `CC(C)(C)OC(=O)NC(CCn1cnc(N)c2nc(Sc3cc4c(cc3Br)OCO4)nc1-2)C1CCCCC1` (centres unmarked) [Example 671, tert-Butyl(3-{6-amino-8-[(6-bromo-1,3-benzodioxol-5-yl)thio]-3H-purin-3-yl}-1-cyclohexylpropyl)carbamate], the IC50 amounted to 1000 nM.

For `CC(C)(C)OC(=O)NC(CCn1c(Sc2cc3c(cc2Br)OCO3)nc2c(N)ncnc21)C1CCC1` (centres unmarked) [Example 672, tert-Butyl(3-{6-amino-8-[(6-bromo-1,3-benzodioxol-5-yl)thio]-9H-purin-9-yl}-1-cyclobutylpropyl)carbamate], the IC50 was determined as 900 nM.

In the case of `CS(=O)(=O)NC(CCn1c(Sc2cc3c(cc2Br)OCO3)nc2c(N)ncnc21)C1CC1` (centres unmarked) [Example 674, N-(3-{6-Amino-8-[(6-bromo-1,3-benzodioxol-5-yl)thio]-9H-purin-9-yl}-1-cyclopropylpropyl)methanesulfonamide], the IC50 was found to be 80 nM. Against the preceding compound, the IC50 is about 11-fold lower.

In turn, `COc1ccc(OC)c(Sc2nc3c(N)ncnc3n2CCC(NS(C)(=O)=O)C2CC2)c1` (centres unmarked) [Example 676, N-(3-{6-Amino-8-[(2,5-dimethoxyphenyl)thio]-9H-purin-9-yl}-1-cyclopropylpropyl)methanesulfonamide] had a 50% inhibitory concentration (IC50) of 950 nM.

As to `CC(C)(C)OC(=O)NC(CCn1c(Sc2cc3c(cc2Br)OCO3)nc2c(N)ncnc21)C1CCCC1` (centres unmarked) [Example 681, {3-[6-Amino-8-(6-bromo-benzo[1,3]dioxol-5-ylsulfanyl)-purin-9-yl]-1-cyclopentyl-propyl}-carbamic acid tert-butyl ester], the IC50 was 1000 nM.

Compound `CC(C)(C)OC(=O)NC(CCn1c(Sc2cc3c(cc2Br)OCO3)nc2c(N)ncnc21)C1CCOCC1` (centres unmarked) [Example 682, [3-[6-Amino-8-(6-bromo-benzo[1,3]dioxol-5-ylsulfanyl)-purin-9-yl]-1-(tetrahydro-pyran-4-yl)-propyl]-carbamic acid tert-butyl ester] returned an IC50 of 190 nM.
